Experimental data taken from patent US20250230153A1, “2,3-DIHYDROBENZO[B][1,4]DIOXIN-6-YL CONTAINING COMPOUNDS USEFUL AS IMMUNOMODULATORS” (BRISTOL-MYERS SQUIBB COMPANY, priority 2021, published 2025).
pIC50: −log10 of the molar value. Structures can show the parent of a compound that is named as a salt.

Each compound was assayed against PD-1/PD-L1 (Homo sapiens (Human), UniProt Q9NZQ7) (assay: PD-1/PD-L1 Homogenous Time-Resolved Fluorescence (HTRF) binding assay). Conditions: PD-1-Ig (20 nM final)/PD-L1-His (10 nM final) binding assay.
Text: The ability of the compounds of the invention to bind to PD-L1 was investigated using a PD-1/PD-L1 Homogenous Time-Resolved Fluorescence (HTRF) binding assay.
The interaction of PD-1 and PD-L1 can be assessed using soluble, purified preparations of the extracellular domains of the two proteins. The PD-1 and PD-L1 protein extracellular domains were expressed as fusion proteins with detection tags, for PD-1, the tag was the Fc portion of Immunoglobulin (PD-1-Ig) and for PD-L1 it was the 6 histidine motif (PD-L1-His). All binding studies were performed in an HTRF assay buffer consisting of dPBS supplemented with 0.1% […] bovine serum albumin and 0.05% (v/v) Tween-20. For the h/PD-L1-His binding assay, inhibitors were pre-incubated with PD-L1-His (10 nM final) for 15m in 4 μl of assay buffer, followed by addition of PD-1-Ig (20 nM final) in 1 μl of assay buffer and further incubation for 15 m. HTRF detection was achieved using europium crypate-labeled anti-Ig (1 nM final) and allophycocyanin (APC) labeled anti-His (20 nM final). Antibodies were diluted in HTRF detection buffer and 5 μl was dispensed on top of the binding reaction. The reaction mixture was allowed to equilibrate for 30 minutes and the resulting signal (665 nm/620 nm ratio) was obtained using an EnVision fluorometer. Additional binding assays were established between the human proteins PD-1-Ig/PD-L2-His (20 & 5 nM, respectively) and CD80-His/PD-L1-Ig (100 & 10 nM, respectively).
Recombinant Proteins: Human PD-1 (25-167) with a C-terminal human Fc domain of immunoglobulin G (Ig) epitope tag [hPD-1 (25-167)-3S-IG] and human PD-L1 (18-239) with a C-terminal His epitope tag [hPD-L1(18-239)-TVMV-His] were expressed in HEK293T cells and purified sequentially by ProteinA affinity chromatography and size exclusion chromatography. Human PD-L2-His and CD80-His was obtained through commercial sources.
Homogenous Time-Resolved Fluorescence (HTRF) Assays of Binding of Soluble PD-1 to Soluble PD-L1. Soluble PD-1 and soluble PD-L1 refers to proteins with carboxyl-end truncations that remove the transmembrane-spanning regions and are fused to heterologous sequences, specifically the Fc portion of the human immunoglobuling G sequence (Ig) or the hexahistidine epitope tag (His). All binding studies were performed in an HTRF assay buffer consisting of dPBS supplemented with 0.1% (w/v) bovine serum albumin and 0.05% (v/v) Tween-20. For the PD-1-Ig/PD-L1-His binding assay, inhibitors were pre-incubated with PD-L1-His (10 nM final) for 15m in 4 μl of assay buffer, followed by addition of PD-1-Ig (20 nM final) in 1 μl of assay buffer and further incubation for 15 m. PD-L1 fusion proteins from either human, cynomologous macaques, mouse, or other species were used. HTRF detection was achieved using europium crypate-labeled anti-Ig monoclonal antibody (1 nM final) and allophycocyanin (APC) labeled anti-His monoclonal antibody (20 nM final). Antibodies were diluted in HTRF detection buffer and 5 μl was dispensed on top of binding reaction. The reaction was allowed to equilibrate for 30 minutes and signal (665 nm/620 nm ratio) was obtained using an EnVision fluorometer. Additional binding assays were established between PD-1-Ig/PD-L2-His (20 and 5 nM, respectively), CD80-His/PD-L1-Ig (100 and 10 nM, respectively) and CD80-His/CTLA4-Ig (10 and 5 nM, respectively).
Recombinant Proteins. Carboxyl-truncated human PD-1 (amino acids 25-167) with a C-terminal human Ig epitope tag [hPD-1 (25-167)-3S-IG] and human PD-L1 (amino acids 18-239) with a C-terminal His epitope tag [hPD-L1(19-239)-tobacco vein mottling virus protease cleavage site (TVMV)-His] were expressed in HEK293T cells and purified sequentially by recombinant Protein A affinity chromatography and size exclusion chromatography. Human PD-L2-His (Sino Biologicals), CD80-His (Sino Biologicals), CTLA4-Ig (RnD Systems) were all obtained through commercial sources.

Sequence of PD-1/PD-L1 (Q9NZQ7 18-239): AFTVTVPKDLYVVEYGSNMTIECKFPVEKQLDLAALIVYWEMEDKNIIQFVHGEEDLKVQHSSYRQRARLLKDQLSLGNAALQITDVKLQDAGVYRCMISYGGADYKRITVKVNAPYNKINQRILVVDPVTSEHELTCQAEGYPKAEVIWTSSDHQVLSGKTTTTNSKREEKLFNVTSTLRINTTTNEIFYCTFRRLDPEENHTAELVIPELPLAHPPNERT

Question: `Cc1c(COc2cc(OCc3cncc(C(=O)NCCCN(C)C)c3)c(CN3CC[C@H](O)C3)cc2Cl)cccc1-c1ccc2c(c1)OCCO2` [Example 2007, (S)-5-((4-chloro-5-((3-(2,3-dihydrobenzo[b][1,4]dioxin-6-yl)-2-methylbenzyl)oxy)-2-((3-hydroxypyrrolidin-1-yl)methyl)phenoxy)methyl)-N-(3-(dimethylamino)propyl)nicotinamide] was tested. Which pIC50 did it give?
Answer: Its pIC50 is 8.47.

Question: `Cc1c(COc2cc(OCCN3CCCC(O)(C(F)(F)F)C3)c(CN3CCCC[C@H]3C(=O)O)cc2Cl)cccc1-c1ccc2c(c1)OCCO2` (stereo partly drawn) [Example 1058, (2S)-1-(5-Chloro-4-((3-(2,3-dihydrobenzo[b][1,4]dioxin-6-yl)-2-methylbenzyl)oxy)-2-(2-(3-hydroxy-3-(trifluoromethyl)piperidin-1-yl)ethoxy)benzyl)piperidine-2-carboxylic acid] was tested. Which pIC50 did it give?
Answer: The pIC50 was 7.66.

Question: With `CCn1cc(COc2cc(OCc3cccc(-c4ccc5c(c4)OCCO5)c3C)c(Cl)cc2CN[C@@](C)(CO)C(=O)O)cn1` [Example 1003, (S)-2-((5-Chloro-4-((3-(2,3-dihydrobenzo[b][1,4]dioxin-6-yl)-2-methylbenzyl)oxy)-2-((1-ethyl-1H-pyrazol-4-yl)methoxy)benzyl)amino)-3-hydroxy-2-methylpropanoic acid] as the compound, how does the pIC50 read?
Answer: The pIC50 was 8.24.

Question: How did the pIC50 turn out when `Cc1c(COc2cc(OCCCN(C)C)c(CN[C@@H](CO)C(=O)O)cc2Cl)cccc1-c1ccc2c(c1)OCCO2` [Example 2002, (S)-2-((5-chloro-4-((3-(2,3-dihydrobenzo[b][1,4]dioxin-6-yl)-2-methylbenzyl)oxy)-2-(3-(dimethylamino)propoxy)benzyl)amino)-3-hydroxypropanoic acid] was run?
Answer: The pIC50 was 8.19.

Question: `Cc1c(COc2cc(OCC3CNCCO3)c(CN3CCCC[C@H]3C(=O)O)cc2Cl)cccc1-c1ccc2c(c1)OCCO2` (stereo partly drawn) [Example 2011, (2S)-1-(5-Chloro-4-((3-(2,3-dihydrobenzo[b][1,4]dioxin-6-yl)-2-methylbenzyl)oxy)-2-(morpholin-2-ylmethoxy)benzyl)piperidine-2-carboxylic acid acetic acid salt] was tested. Which pIC50 did it give?
Answer: The pIC50 was 7.58.

Question: How did the pIC50 turn out when `Cc1c(COc2cc(OC[C@@H](C)CO)c(CN[C@](C)(CO)C(=O)O)cc2Cl)cccc1-c1ccc2c(c1)OCCO2` [Example 1035, (R)-2-((5-chloro-4-((3-(2,3-dihydrobenzo[b][1,4]dioxin-6-yl)-2-methylbenzyl)oxy)-2-((S)-3-hydroxy-2-methylpropoxy)benzyl)amino)-3-hydroxy-2-methylpropanoic acid] was run?
Answer: The pIC50 was 8.47.

Question: With `Cc1c(COc2cc(OCCCC(F)(F)F)c(CN3CCCC[C@H]3C(=O)O)cc2Cl)cccc1-c1ccc2c(c1)OCCO2` [Example 1028, (S)-1-(5-Chloro-4-((3-(2,3-dihydrobenzo[b][1,4]dioxin-6-yl)-2-methylbenzyl)oxy)-2-(4,4,4-trifluorobutoxy)benzyl)piperidine-2-carboxylic acid] as the compound, how does the pIC50 read?
Answer: Its pIC50 is 8.74.

Question: With `Cc1c(COc2cc(OCc3cncc(SCc4ccccc4)c3)c(CN3CCCC[C@H]3C(=O)O)cc2Cl)cccc1-c1ccc2c(c1)OCCO2` [Example 1010, (S)-1-(2-((5-(Benzylthio)pyridin-3-yl)methoxy)-5-chloro-4-((3-(2,3-dihydrobenzo [b][1,4]dioxin-6-yl)-2-methylbenzyl)oxy)benzyl)piperidine-2-carboxylic acid] as the compound, how does the pIC50 read?
Answer: Its pIC50 is 7.36.

Question: How did the pIC50 turn out when `COC(=O)CCNS(=O)(=O)c1cncc(COc2cc(OCc3cccc(-c4ccc5c(c4)OCCO5)c3C)c(Cl)cc2CN[C@@](C)(CO)C(=O)O)c1` [Example 1018, (S)-2-((5-Chloro-4-((3-(2,3-dihydrobenzo[b][1,4]dioxin-6-yl)-2-methylbenzyl)oxy)-2-((5-(N-(3-methoxy-3-oxopropyl)sulfamoyl)pyridin-3-yl)methoxy)benzyl)amino)-3-hydroxy-2-methylpropanoic acid] was run?
Answer: Its pIC50 is 8.40.

Question: How did the pIC50 turn out when `COC(=O)CCSc1cncc(COc2cc(OCc3cccc(-c4ccc5c(c4)OCCO5)c3C)c(Cl)cc2CN2CCCC[C@H]2C(=O)O)c1` [Example 1007, (S)-1-(5-Chloro-4-((3-(2,3-dihydrobenzo[b][1,4]dioxin-6-yl)-2-methylbenzyl)oxy)-2-((5-((3-methoxy-3-oxopropyl)thio)pyridin-3-yl)methoxy)benzyl)piperidine-2-carboxylic acid] was run?
Answer: The pIC50 was 7.56.

Question: How did the pIC50 turn out when `Cc1c(COc2cc(OCCCC(F)(F)F)c(CNC(C)(CO)CO)cc2Cl)cccc1-c1ccc2c(c1)OCCO2` [Example 1030, 2-((5-Chloro-4-((3-(2,3-dihydrobenzo[b][1,4]dioxin-6-yl)-2-methylbenzyl)oxy)-2-(4,4,4-trifluorobutoxy)benzyl)amino)-2-methylpropane-1,3-diol] was run?
Answer: The pIC50 was 8.19.

Question: With `Cc1c(COc2cc(OCc3ccnc(NC(=O)N4CCOCC4)c3)c(CN[C@@](C)(CO)C(=O)O)cc2Cl)cccc1-c1ccc2c(c1)OCCO2` [Example 1004, (S)-2-((5-Chloro-4-((3-(2,3-dihydrobenzo[b][1,4]dioxin-6-yl)-2-methylbenzyl)oxy)-2-((2-(morpholine-4-carboxamido)pyridin-4-yl)methoxy)benzyl)amino)-3-hydroxy-2-methylpropanoic acid] as the compound, how does the pIC50 read?
Answer: The pIC50 was 7.76.

Question: `Cc1c(COc2cc(OCc3cnn(CC(=O)O)c3)c(CN[C@@](C)(CO)C(=O)O)cc2Cl)cccc1-c1ccc2c(c1)OCCO2` [Example 1016, (S)-2-((2-((1-(Carboxymethyl)-1H-pyrazol-4-yl)methoxy)-5-chloro-4-((3-(2,3-dihydrobenzo[b][1,4]dioxin-6-yl)-2-methylbenzyl)oxy)benzyl)amino)-3-hydroxy-2-methylpropanoic acid] was tested. Which pIC50 did it give?
Answer: Its pIC50 is 8.27.

Question: With `Cc1c(COc2cc(OCCCC(F)(F)F)c(CN[C@](C)(CO)C(=O)O)cc2Cl)cccc1-c1ccc2c(c1)OCCO2` [Example 1029, (R)-2-((5-Chloro-4-((3-(2,3-dihydrobenzo[b][1,4]dioxin-6-yl)-2-methylbenzyl)oxy)-2-(4,4,4-trifluorobutoxy)benzyl)amino)-3-hydroxy-2-methylpropanoic acid] as the compound, how does the pIC50 read?
Answer: Its pIC50 is 8.92.

Question: `Cc1c(COc2cc(OCCN3CCC(O)(C(=O)O)CC3)c(CNC(C)(CO)CO)cc2Cl)cccc1-c1ccc2c(c1)OCCO2` [Example 1056, 1-(2-(4-Chloro-5-((3-(2,3-dihydrobenzo[b][1,4]dioxin-6-yl)-2-methylbenzyl)oxy)-2-(((1,3-dihydroxy-2-methylpropan-2-yl)amino)methyl)phenoxy)ethyl)-4-hydroxypiperidine-4-carboxylic acid] was tested. Which pIC50 did it give?
Answer: The pIC50 was 9.22.

Question: How did the pIC50 turn out when `Cc1c(COc2cc(OCC3CCC3)c(CN3CCCC[C@H]3C(=O)O)cc2Cl)cccc1-c1ccc2c(c1)OCCO2` [Example 1050, (S)-1-(5-Chloro-2-(cyclobutylmethoxy)-4-((3-(2,3-dihydrobenzo[b][1,4]dioxin-6-yl)-2-methylbenzyl)oxy)benzyl)piperidine-2-carboxylic acid] was run?
Answer: Its pIC50 is 7.22.

Question: `Cc1c(COc2cc(OCc3cnn(CC(=O)OC(C)(C)C)c3)c(CN[C@@](C)(CO)C(=O)O)cc2Cl)cccc1-c1ccc2c(c1)OCCO2` [Example 1009, (S)-2-((2-((1-(2-(tert-Butoxy)-2-oxoethyl)-1H-pyrazol-4-yl)methoxy)-5-chloro-4-((3-(2,3-dihydrobenzo[b][1,4]dioxin-6-yl)-2-methylbenzyl)oxy)benzyl)amino)-3-hydroxy-2-methylpropanoic acid] was tested. Which pIC50 did it give?
Answer: Its pIC50 is 7.36.
